# Several values for one entry are separate records, joined by “and”; a condition that tells them apart may be missing. Equal values may be shown once.
# Key:
# [1] = system: form deprivation myopia model of guinea pigs; assay: FDM guinea pig model, eye drops (non-invasive administration); assay type: in vivo; settings: for refraction difference between the eyes: FDM
# Description: The purpose of this experiment was to evaluate the effect of vinpocetine on myopia through non-invasive administration. All tested drugs were formulated into eye drops. […] No other active substances or excipients were added to the above eye drops.
# [2] = system: form deprivation myopia (FDM) guinea pig model; assay: form deprivation myopia (FDM) guinea pig model, injection around the eyeball; assay type: in vivo
# From the text: The form deprivation and lens-induced guinea pig myopia model is a classic and recognized myopia animal model in the field. The model can be used to evaluate the efficacy and safety of drugs for treating myopia. The construction method of the model is well known to those skilled in the art. The animal modeling and administration route in this application refer to the scientific literature previously published by this research group (Sen Zhang, Invest Ophthalmol Vis Sci. 2019 Jul. 1; 60(8):3074-3083.; Miaozhen Pan, Exp Eye Res. 2021 January; 202:108332.), specifically, this application uses the following exemplary construction method of the form deprivation and lens-induced guinea pig myopia model:
# three-week-old tricolor guinea pigs (both male and female, simulating humans aged 3-26 years old) were used and raised in the experimental animal room of Wenzhou Medical University in a 12-hour light (400-500 lux)/12-hour dark environment with free access to water and food. The myopia model adopted monocular form deprivation (FD) and lens induction (LI) modeling methods. […] In the lens induction group, a −4D lens was fixed in front of the right eye of the animal, and the left eye obtained normal vision. For the above animals, the lenses were cleaned twice a day to prevent the lenses from blurring. The animals in the experimental group were administrated at 9:00-9:30 am every day. […] The administration process for each animal was controlled in about 10 seconds. Administration began on the day of modeling, and was continuous for 2 weeks for the form deprivation group and was continuous for 1 week for the lens induction group. This experiment has been reviewed by the Experimental Animal Ethics Committee of Wenzhou Medical University.
# The inventors prepared a 5 μM (i.e., 1.75 μg/mL) vinpocetine stock solution and stored at −80° C. The solvent was physiological saline. Before administration experiment, the stock solution was diluted with physiological saline to 1 μM, 0.1 μM, and 0.01 μM, respectively. During the formulation process of vinpocetine eye drops, the solubility can be increased by using conventional physical methods such as heating and stirring, or acids can also be used to adjust the PH value to increase solubility, and finally, the PH value can be adjusted to 7.31.
# 2. Form deprivation plus drug injection group: • wearing an eye mask on one eye and injecting vinpocetine (0.01 μM: 0.1 mL/day) into the eye wearing the eye mask for 2 weeks, sample size=15; • wearing an eye mask on one eye and injecting vinpocetine (0.1 μM: 0.1 mL/day) into the eye wearing the eye mask for 2 weeks, sample size=20; • wearing an eye mask on one eye and injecting vinpocetine 1.00 μM: 0.1 mL/day) into the eye wearing the eye mask for 2 weeks, sample size=22; • 3.
# All animals in the same model efficacy experiment were measured within the same time period, and the first measurement was at 3 weeks of age, that is, before drug administration. Refractions and eyeball parameters were measured for the animals in the above FDM group before the experiment, after 1 week of administration in the experiment and after 2 weeks of administration in the experiment and for the animals in the LIM group before the experiment, after 3 days of administration in the experiment and after 7 days of administration in the experiment, respectively. The refractions were measured using an eccentric infrared photoretinoscope (EIR) built in our laboratory. Each eye was measured three times and the average was taken as the final result. The axial parameters of the guinea pig's eyeballs were measured using the A-ultrasound probe in the CinescanA/B ultrasonic diagnostic instrument (QuantelMedical, Aviso, France). The ultrasonic frequency was 11 MHz. The ultrasonic propagation speeds of different refractive media of the eyeball were set as: 1557.5 m/s for the anterior chamber, 1723.3 m/s for the lens, and 1540 m/s for the vitreous body.
# [3] = vinpocetine 5 μM eye drops, 2 weeks
# [4] = vinpocetine 5 μM eye drops, 2 weeks (rounded and actual value)
# [5] = vinpocetine 1 μM, 1 week, vs vehicle
smiles,measurement,setting,value
CCOC(=O)C1=C[C@]2(CC)CCCN3CCc4c(n1c1ccccc41)[C@@H]32 [vinpocetine],refraction difference between the eyes,"[1]; vinpocetine 1 μM eye drops 25 μL twice a day, 2 weeks",−4.81±1.72 D
same,refraction difference between the eyes,"[1]; vinpocetine 5 μM eye drops 25 μL twice a day, 2 weeks",−3.80±1.16 D
same,refraction inhibition rate,"[1]; vinpocetine 1 μM eye drops, 2 weeks",26.7%
same,inhibition rate for the axial length,[1]; [3],41.4%
same,inhibition rate for the vitreous chamber depth,[1]; [3],38.6%
same,refraction inhibition rate,[1]; [3],42.1%
same,axial length difference between the eyes,[1]; [4],0.09±0.04 mm and 0.0925±0.0406 mm
same,vitreous chamber depth difference between the eyes,[1]; [4],0.09±0.04 mm and 0.0869±0.0448 mm
same,refraction change towards negative and vitreous chamber depth elongation compared with the negative control group,"[2]; low-concentration vinpocetine 0.01 μM, two time points, no statistical difference",showed an inhibitory trend
same,refraction difference between the experimental eye and the contralateral eye,"[2]; vinpocetine 1 μM 0.1 mL/day peribulbar injection, 1 week",−2.44±1.88 D
same,axial length difference between the experimental eye and the contralateral eye,"[2]; vinpocetine 1 μM, 1 week",0.07±0.05 mm
same,vitreous chamber depth difference between the experimental eye and the contralateral eye,"[2]; vinpocetine 1 μM, 1 week",0.06±0.05 mm
same,inhibition rate for the axial length,[2]; [5],39.8%
same,inhibition rate for the vitreous chamber depth,[2]; [5],45.0%
same,refraction inhibition rate,[2]; [5],50.5%
same,axial length difference between the experimental eye and the contralateral eye,"[2]; vinpocetine 1 μM, 2 weeks",0.08±0.05 mm
same,inhibition rate for the axial length,"[2]; vinpocetine 1 μM, 2 weeks",48.2%
same,inhibition rate for the vitreous chamber depth,"[2]; vinpocetine 1 μM, 2 weeks",43.4%
same,refraction difference between the experimental eye and the contralateral eye,"[2]; vinpocetine 1 μM, 2 weeks",−3.36±2.21 D
same,refraction inhibition rate,"[2]; vinpocetine 1 μM, 2 weeks",50.1%
same,vitreous chamber depth difference between the experimental eye and the contralateral eye,"[2]; vinpocetine 1 μM, 2 weeks",0.09±0.05 mm
